For 15 molecules, inhibition and cytotoxicity results are on record in ChEMBL document CHEMBL1681642, “Synthesis and biological activity of novel MIF antagonists” (Bioorg Med Chem Lett, 2011).

Molecules are shown by their SMILES.

Data set [1] has as its target T1, Macrophage migration inhibitory factor (Homo sapiens) (UniProt P14174).
T1 sequence (whole entry): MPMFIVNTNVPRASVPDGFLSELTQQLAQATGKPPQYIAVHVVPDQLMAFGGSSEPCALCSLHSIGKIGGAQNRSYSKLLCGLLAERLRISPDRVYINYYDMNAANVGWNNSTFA
Briefly: Inhibition of human purified MIF tautomerase activity at 10 uM after 30 mins.

Data set [2] is described as follows: Cytotoxicity against human PBMC assessed as cell viability measured during cytokines production assay at 100 uM after 21 hrs by MTS assay. Type of data set: cell-based. Conditions: PBMC (peripheral blood mononuclear cells). A general note: Formazan colour is commonly taken as a measure of viable cells.
Data set [3] deals with PBMC. The experiment in a line: Antiinflammatory activity in human PBMC assessed as inhibition of MIF-induced TNFalpha production at 100 uM after 21 hrs by ELISA. Format: functional. Background: In an ELISA, binding on a coated surface is turned into a signal by an enzyme label.
The target of data set [4] is T1, Macrophage migration inhibitory factor (Homo sapiens). Briefly: Inhibition of MIF in human PBMC assessed as MIF secretion at 10 uM after 5 hrs by ELISA.
The subject of data set [5] is PBMC. The experiment in a line: Antiinflammatory activity in human PBMC assessed as inhibition of MIF-induced IL-6 production at 30 uM after 21 hrs by ELISA. Type of data set: functional.
Data set [6] deals with T1, Macrophage migration inhibitory factor (Homo sapiens). Briefly: Inhibition of MIF in human PBMC assessed as MIF secretion at 100 uM after 5 hrs by ELISA.
In data set [7] the test system is PBMC. Briefly: Antiinflammatory activity in human PBMC assessed as inhibition of MIF-induced IL-6 production at 100 uM after 21 hrs by ELISA. Format: functional.
The target in data set [8] is T1, Macrophage migration inhibitory factor (Homo sapiens). The experiment in a line: Inhibition of human purified MIF tautomerase activity at 100 uM after 30 mins.
Data set [9] is described as follows: Cytotoxicity against human PBMC assessed as cell viability measured during MIF secretion assay at 100 uM after 21 hrs by MTS assay. Type of data set: cell-based. Conditions: PBMC (peripheral blood mononuclear cells).
Data set [10] has as its system PBMC. The experiment in a line: Antiinflammatory activity in human PBMC assessed as inhibition of MIF-induced IL1-beta production at 100 uM after 21 hrs by ELISA. Format: functional.

As a reminder, the inhibition is how much of the control response was suppressed.

Regarding `FC(F)(F)c1ccc(C2CC(c3cn(-c4cccc(C(F)(F)F)c4)c4ccccc34)=NO2)cc1` (stereo not given), the inhibition in [1] was determined as 4%; in data set [4] it was 20%; in [6], 5%; in data set [8], 51%. For the same molecule, the cytotoxicity at 21 h, 100 µM in [2] was 6%; in data set [9] it was 0%. Besides, the inhibition at 100 µM in the data set on PBMC [3] is 2%; with PBMC [7], 6%; with PBMC [10], 15%. Besides, in the data set with PBMC [5], the inhibition at 30 µM was found to be 3%.

As to `Fc1ccc(C2CC(c3cn(-c4cccc(C(F)(F)F)c4)c4ccccc34)=NO2)cc1` (stereo not given), the inhibition in [1] came to 55%; in [4], 0%; in [6], 0%; in [8], 100%. Moreover, the cytotoxicity at 21 h, 100 µM came to 1% in [2] and 0% in [9]. The inhibition at 100 µM in the data set with PBMC [3] was 0%; in the data set on PBMC [7], 4%; with PBMC [10], 0%. Further, the inhibition at 30 µM with PBMC [5] was 0%.

As to `c1ccc2c(c1)ccn2CC1CC(c2ccoc2)=NO1` (stereo not given), the inhibition in data set [1] worked out at 26%; in data set [4], 68%; in data set [6], 95%; in [8], 100%. Besides, the cytotoxicity at 21 h, 100 µM stood at 6% in [2] and 0% in data set [9]. Further, the inhibition at 100 µM in the data set with PBMC [3] was determined as 30%; in the data set with PBMC [7], 6%; with PBMC [10], 19%. For the same molecule, the inhibition at 30 µM with PBMC [5] came out at 0%.

Consider `COC(=O)C1(C)CC(c2cn(-c3cccc(C(F)(F)F)c3)c3ccccc23)=NO1` (stereo not given), for which the inhibition in [1] worked out at 13%; in data set [4], 4%; in [6], 0%; in [8], 66%. Also, the cytotoxicity at 21 h, 100 µM worked out at 2% in data set [2] and 5% in data set [9]. Further, the inhibition at 100 µM amounted to 81% in the data set on PBMC [3], 65% in the data set on PBMC [7] and 89% with PBMC [10]. The inhibition at 30 µM with PBMC [5] is 25%.

For `COc1ccc(C2CC(c3ccoc3)=NO2)cc1` (stereo not given), the inhibition worked out at 10% in [1], 38% in [4], 82% in data set [6] and 72% in data set [8]. For the same molecule, the cytotoxicity at 21 h, 100 µM in [2] amounted to 12%; in data set [9], 0%. The inhibition at 100 µM was determined as 2.5% in the data set with PBMC [3], 0% in the data set on PBMC [7] and 13% in the data set on PBMC [10]. For the same molecule, the inhibition at 30 µM in the data set on PBMC [5] was determined as 0%.

Consider `COc1ccc(C2CC(c3cn(-c4cccc(C(F)(F)F)c4)c4ccccc34)=NO2)cc1` (stereo not given), for which the inhibition in data set [1] was 55%; in [4], 0%; in [6], 1%; in [8], 97%. Besides, the cytotoxicity at 21 h, 100 µM worked out at 3% in data set [2] and 0% in data set [9]. For the same molecule, the values for the inhibition at 100 µM with PBMC [3], with PBMC [7] and in the data set on PBMC [10] were 23%, 13% and 37%, respectively. Besides, in the data set on PBMC [5], the inhibition at 30 µM came out at 5%.

On to `CC1(C(=O)O)CC(c2cn(-c3cccc(C(F)(F)F)c3)c3ccccc23)=NO1` (stereo not given), for which the inhibition in [1] was determined as 2%; in data set [4], 41%; in [6] it was 14%; in [8], 17%. The cytotoxicity at 21 h, 100 µM in data set [2] stood at 14%; in [9] it was 2%. Besides, the inhibition at 100 µM in the data set with PBMC [3] is 39%; in the data set on PBMC [7], 45%; with PBMC [10], 54%. Further, the inhibition at 30 µM in the data set on PBMC [5] came to 18%.

For the molecule `c1ccc(C2CC(c3ccoc3)=NO2)cc1` (stereo not given), the inhibition is 17% in [1], 37% in [4], 68% in data set [6] and 59% in [8]. The cytotoxicity at 21 h, 100 µM in [2] amounted to 16%; in [9], 0%. Moreover, the inhibition at 100 µM worked out at 50% in the data set with PBMC [3], 14% with PBMC [7] and 31% with PBMC [10]. For the same molecule, in the data set with PBMC [5], the inhibition at 30 µM was 5%.

Take `FC(F)(F)c1cccc(-n2cc(C3=NOC(C4CCCCC4)C3)c3ccccc32)c1` (stereo not given): the inhibition worked out at 28% in [1], 1% in data set [4], 22% in data set [6] and 100% in [8]. Besides, the cytotoxicity at 21 h, 100 µM in data set [2] amounted to 7%; in data set [9], 15%. Also, the inhibition at 100 µM is 27% in the data set with PBMC [3], 19% in the data set with PBMC [7] and 43% in the data set on PBMC [10]. Also, the inhibition at 30 µM in the data set with PBMC [5] worked out at 4%.

For `FC(F)(F)c1cccc(-n2cc(C3=NOC(c4ccccc4)C3)c3ccccc32)c1` (stereo not given), the inhibition in data set [1] is 6%; in data set [4] it was 11%; in [6] it was 2%; in data set [8], 71%. Besides, the cytotoxicity at 21 h, 100 µM in data set [2] came to 8%; in [9] it was 0%. Also, the inhibition at 100 µM with PBMC [3] is 0%; with PBMC [7], 9%; with PBMC [10], 12%. Besides, in the data set on PBMC [5], the inhibition at 30 µM came out at 18%.

As for `FC(F)(F)c1cccc(-n2cc(C3=NOC(CN4CCOCC4)C3)c3ccccc32)c1` (stereo not given), the inhibition in [1] came out at 10%; in data set [4], 0%; in data set [6], 0%; in [8] it was 100%. Moreover, the cytotoxicity at 21 h, 100 µM is 10% in data set [2] and 65% in data set [9]. The inhibition at 100 µM in the data set with PBMC [3] is 42%; in the data set with PBMC [7] it was 36%; in the data set on PBMC [10] it was 51%. The inhibition at 30 µM with PBMC [5] was 22%.

For the molecule `c1cc(C2=NOC(CN3CCOCC3)C2)co1` (stereo not given), the inhibition was 20% in [1], 44% in data set [4], 78% in [6] and 56% in data set [8]. Besides, the cytotoxicity at 21 h, 100 µM was 6% in data set [2] and 0% in [9]. Moreover, the inhibition at 100 µM in the data set on PBMC [3] was 0%; in the data set on PBMC [7], 49%; in the data set on PBMC [10], 32%. In addition, the inhibition at 30 µM in the data set on PBMC [5] is 39%.

`O=C1c2ccccc2C(=O)N1C1CC(c2cn(-c3cccc(C(F)(F)F)c3)c3ccccc23)=NO1` (stereo not given): the inhibition in data set [1] was found to be 8%; in data set [4] it was 0%; in data set [6] it was 0%; in [8] it was 47%. For the same molecule, the values for the cytotoxicity at 21 h, 100 µM in data set [2] and in data set [9] were 11% and 0%, respectively. For the same molecule, the inhibition at 100 µM was found to be 63% with PBMC [3], 24% in the data set with PBMC [7] and 43% in the data set with PBMC [10]. Besides, the inhibition at 30 µM in the data set on PBMC [5] came to 6%.

For the molecule `COC(=O)CC1(C(=O)OC)CC(c2ccoc2)=NO1` (stereo not given), the inhibition in data set [1] worked out at 23%; in data set [4], 0%; in data set [6], 0%; in [8], 47%. Besides, the values for the cytotoxicity at 21 h, 100 µM in data set [2] and in data set [9] were 8% and 7%, respectively. Also, the inhibition at 100 µM in the data set with PBMC [3] is 4%; with PBMC [7] it was 60%; in the data set with PBMC [10] it was 57%. Also, the inhibition at 30 µM with PBMC [5] turned out to be 53%.

Regarding `OCCC1CC(c2ccoc2)=NO1` (stereo not given), the inhibition was determined as 3% in data set [1], 39% in [4], 58% in data set [6] and 23% in data set [8]. The cytotoxicity at 21 h, 100 µM in data set [2] stood at 10%; in [9], 0%. Besides, the inhibition at 100 µM was determined as 11% with PBMC [3], 7% with PBMC [7] and 0% in the data set on PBMC [10]. For the same molecule, the inhibition at 30 µM with PBMC [5] stood at 18%.
